The record followed here is ChEMBL document CHEMBL1201862, “PubChem BioAssay data set” (2004).

Targets include Cytochrome P450 2C9 (Homo sapiens, UniProt P11712); Cytochrome P450 2D6 (Homo sapiens, UniProt P10635); Cytochrome P450 3A4 (Homo sapiens, UniProt P08684).
Assay [1] has as its target T1, Corticotropin-releasing factor receptor 2/Corticotropin-releasing factor-binding protein (Homo sapiens, UniProt P24387+Q13324).
T1 sequence (Q13324 whole entry): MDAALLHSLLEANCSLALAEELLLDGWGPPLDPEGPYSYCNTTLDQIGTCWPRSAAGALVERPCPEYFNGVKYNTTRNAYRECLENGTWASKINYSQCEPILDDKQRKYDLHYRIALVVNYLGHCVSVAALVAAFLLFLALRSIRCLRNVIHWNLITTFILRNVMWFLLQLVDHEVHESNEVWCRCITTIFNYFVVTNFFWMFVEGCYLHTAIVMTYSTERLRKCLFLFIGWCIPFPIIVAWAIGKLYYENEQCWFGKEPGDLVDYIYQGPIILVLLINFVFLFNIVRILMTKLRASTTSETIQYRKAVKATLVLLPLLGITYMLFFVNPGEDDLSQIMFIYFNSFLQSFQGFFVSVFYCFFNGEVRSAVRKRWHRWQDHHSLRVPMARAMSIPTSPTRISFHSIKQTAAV
T1 sequence (P24387 whole entry): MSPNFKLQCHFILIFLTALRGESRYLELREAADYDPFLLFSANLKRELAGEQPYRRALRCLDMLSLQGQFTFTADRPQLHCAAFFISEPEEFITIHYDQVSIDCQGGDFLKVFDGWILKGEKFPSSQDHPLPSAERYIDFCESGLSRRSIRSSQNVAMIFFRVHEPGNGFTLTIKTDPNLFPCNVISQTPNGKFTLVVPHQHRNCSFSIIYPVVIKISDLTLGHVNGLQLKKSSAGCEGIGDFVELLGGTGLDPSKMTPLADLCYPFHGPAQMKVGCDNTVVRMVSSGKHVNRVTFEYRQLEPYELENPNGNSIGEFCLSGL
Description: Dose Response confirmation of uHTS hits for small molecule antagonists of the CRF-binding protein and CRF-R2 receptor complex. Type of assay: functional. Conditions: read-out: IC50_Mean.

Assay [2] deals with T1, Corticotropin-releasing factor receptor 2/Corticotropin-releasing factor-binding protein. Description: activators of CRF receptor 2 with binding protein – uHTS hits, confirmation (AID 602473). Type of assay: functional. Conditions: read-out: EC50_Mean.
Assay [3] deals with Luciferin 4-monooxygenase (Photinus pyralis, UniProt P08659). Description: inhibition of purified Photinus pyralis luciferase – biochemical, luminescence, dose response (AID 1891).
A further assay deals with T2, Cytochrome P450 1A2 (Homo sapiens, UniProt P05177).
T2 sequence (P05177 whole entry): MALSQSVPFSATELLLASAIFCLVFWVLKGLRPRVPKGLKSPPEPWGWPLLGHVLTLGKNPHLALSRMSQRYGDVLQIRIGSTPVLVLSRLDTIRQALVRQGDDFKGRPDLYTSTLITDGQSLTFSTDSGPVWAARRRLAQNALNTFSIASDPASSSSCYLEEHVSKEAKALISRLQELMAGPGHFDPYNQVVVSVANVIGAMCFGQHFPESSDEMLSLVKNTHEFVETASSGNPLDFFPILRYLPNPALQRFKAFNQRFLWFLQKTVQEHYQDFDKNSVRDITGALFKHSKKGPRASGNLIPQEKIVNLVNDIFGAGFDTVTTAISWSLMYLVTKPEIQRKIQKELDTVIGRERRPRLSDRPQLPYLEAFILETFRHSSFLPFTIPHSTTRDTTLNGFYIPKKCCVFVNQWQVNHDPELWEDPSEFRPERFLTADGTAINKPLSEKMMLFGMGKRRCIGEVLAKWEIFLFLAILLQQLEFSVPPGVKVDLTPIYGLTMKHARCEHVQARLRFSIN

Assay [4] is described as follows: Luminescence Cell-Based Dose Confirmation HTS to Identify Inhibitors of Platelet Dense Granule Release. [Related pubchem assays: 1663 (Primary HTS), 1678 (Summary of Project)]. Type of assay: functional.
The next assay in a line: cells. Type of assay: functional.
The test system of a further assay is H9c2. Description: cells. It counts as functional, cell-based. Conditions: Rattus norvegicus, H9c2, Myocardium.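 Further: confirmatory concentration-response retest of ultra-high-throughput screening hits for modulation of myocardial damage; cell death induced by hydrogen peroxide oxidative stress; compound pretreatment for 60 min then peroxide exposure for 2 h; potency is for protecting the cells against peroxide damage rather than for killing them.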
The target of a further assay is Paired box protein Pax-8 (Homo sapiens, UniProt Q06710). Description: PAX8 transcriptional activity inhibition in RMG-I – RMG-I cells, luciferase, cherry-pick, dose response (AID 687027).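 Further: luciferase reporter driven by Pax8 target thyroperoxidase promoter measured by SteadyGlo luminescence.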 Type of assay: functional, cell-based.
In assay [5] the target is FAD-linked sulfhydryl oxidase ALR (Homo sapiens, UniProt P55789). Description: ALR-catalysed DTT oxidation blockers – biochemical, H2O2 detection, luminescence, cherry-pick, dose response (AID 493248).
The target of assay [6] is T3, Rac GTPase-activating protein 1 (Homo sapiens, UniProt Q9H0H5).
T3 sequence (Q9H0H5 whole entry): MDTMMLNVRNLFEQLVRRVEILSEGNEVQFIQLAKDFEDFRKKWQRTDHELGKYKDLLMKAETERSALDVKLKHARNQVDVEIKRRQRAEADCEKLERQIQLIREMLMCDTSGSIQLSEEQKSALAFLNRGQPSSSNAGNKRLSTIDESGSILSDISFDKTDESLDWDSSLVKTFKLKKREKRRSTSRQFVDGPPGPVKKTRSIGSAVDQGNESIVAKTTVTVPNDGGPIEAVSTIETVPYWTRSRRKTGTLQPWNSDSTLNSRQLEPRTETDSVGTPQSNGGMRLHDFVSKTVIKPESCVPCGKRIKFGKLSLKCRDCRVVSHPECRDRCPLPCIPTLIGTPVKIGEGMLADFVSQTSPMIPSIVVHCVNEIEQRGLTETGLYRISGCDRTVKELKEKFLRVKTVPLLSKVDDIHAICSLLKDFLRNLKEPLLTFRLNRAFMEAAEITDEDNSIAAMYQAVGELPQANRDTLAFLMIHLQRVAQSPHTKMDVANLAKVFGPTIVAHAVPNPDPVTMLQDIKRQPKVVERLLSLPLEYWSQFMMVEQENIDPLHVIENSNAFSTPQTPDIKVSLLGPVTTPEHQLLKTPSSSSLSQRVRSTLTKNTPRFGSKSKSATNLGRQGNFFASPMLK
Description: blockers of MgcRacGAP-driven Rac1 GTP hydrolysis – biochemical, ADP Hunter fluorescence, primary and confirmatory, confirmation (AID 624330). It counts as functional.

Each structure is given as a SMILES string. The source made the active and inactive calls.

Sequence of Luciferin 4-monooxygenase (P08659 whole entry): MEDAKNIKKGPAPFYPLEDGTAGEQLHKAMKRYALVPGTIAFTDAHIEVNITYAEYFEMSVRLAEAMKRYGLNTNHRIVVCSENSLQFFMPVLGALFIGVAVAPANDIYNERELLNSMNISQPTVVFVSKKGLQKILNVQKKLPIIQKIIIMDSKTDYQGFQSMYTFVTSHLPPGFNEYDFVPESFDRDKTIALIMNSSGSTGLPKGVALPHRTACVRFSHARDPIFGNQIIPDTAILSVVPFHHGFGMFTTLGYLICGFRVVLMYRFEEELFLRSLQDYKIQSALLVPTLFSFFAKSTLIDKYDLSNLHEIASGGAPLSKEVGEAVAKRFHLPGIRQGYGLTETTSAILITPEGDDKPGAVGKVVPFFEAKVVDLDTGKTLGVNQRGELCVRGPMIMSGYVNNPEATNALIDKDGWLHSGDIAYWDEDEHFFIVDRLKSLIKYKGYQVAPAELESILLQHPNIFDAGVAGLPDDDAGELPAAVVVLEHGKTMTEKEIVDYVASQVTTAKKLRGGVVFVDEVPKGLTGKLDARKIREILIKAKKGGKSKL
Sequence of Paired box protein Pax-8 (Q06710 whole entry): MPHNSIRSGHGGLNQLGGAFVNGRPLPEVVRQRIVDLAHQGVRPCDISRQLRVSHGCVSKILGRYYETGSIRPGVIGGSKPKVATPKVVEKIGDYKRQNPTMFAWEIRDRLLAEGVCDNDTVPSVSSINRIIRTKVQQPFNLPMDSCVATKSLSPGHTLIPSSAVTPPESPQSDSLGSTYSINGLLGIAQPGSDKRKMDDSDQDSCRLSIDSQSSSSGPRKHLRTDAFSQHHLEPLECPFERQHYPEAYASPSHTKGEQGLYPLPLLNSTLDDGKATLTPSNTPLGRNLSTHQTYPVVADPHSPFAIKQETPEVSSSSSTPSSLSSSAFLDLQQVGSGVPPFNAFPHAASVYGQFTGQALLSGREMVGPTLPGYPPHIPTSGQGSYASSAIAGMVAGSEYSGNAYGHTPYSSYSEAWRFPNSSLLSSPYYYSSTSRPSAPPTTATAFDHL
Sequence of Cytochrome P450 2C9 (P11712 whole entry): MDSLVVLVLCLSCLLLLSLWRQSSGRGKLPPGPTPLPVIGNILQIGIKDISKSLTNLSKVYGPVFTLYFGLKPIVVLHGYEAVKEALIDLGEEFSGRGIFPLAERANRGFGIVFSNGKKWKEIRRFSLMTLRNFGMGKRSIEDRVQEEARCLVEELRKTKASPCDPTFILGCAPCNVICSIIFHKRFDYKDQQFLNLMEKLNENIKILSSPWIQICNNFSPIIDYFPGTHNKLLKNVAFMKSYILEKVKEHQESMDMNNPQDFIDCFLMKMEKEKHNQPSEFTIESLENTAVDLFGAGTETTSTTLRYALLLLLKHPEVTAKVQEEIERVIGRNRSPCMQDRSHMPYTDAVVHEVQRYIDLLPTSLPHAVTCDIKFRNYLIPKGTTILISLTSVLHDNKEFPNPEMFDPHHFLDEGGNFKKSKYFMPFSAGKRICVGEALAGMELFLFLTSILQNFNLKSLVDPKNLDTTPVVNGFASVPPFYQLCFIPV
Sequence of FAD-linked sulfhydryl oxidase ALR (P55789 whole entry): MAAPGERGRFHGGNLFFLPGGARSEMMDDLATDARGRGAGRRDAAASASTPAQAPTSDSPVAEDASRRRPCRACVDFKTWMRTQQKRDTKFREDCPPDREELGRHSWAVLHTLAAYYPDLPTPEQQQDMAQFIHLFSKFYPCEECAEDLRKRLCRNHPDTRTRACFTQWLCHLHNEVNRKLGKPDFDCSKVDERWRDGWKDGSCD
Sequence of Cytochrome P450 2D6 (P10635 whole entry): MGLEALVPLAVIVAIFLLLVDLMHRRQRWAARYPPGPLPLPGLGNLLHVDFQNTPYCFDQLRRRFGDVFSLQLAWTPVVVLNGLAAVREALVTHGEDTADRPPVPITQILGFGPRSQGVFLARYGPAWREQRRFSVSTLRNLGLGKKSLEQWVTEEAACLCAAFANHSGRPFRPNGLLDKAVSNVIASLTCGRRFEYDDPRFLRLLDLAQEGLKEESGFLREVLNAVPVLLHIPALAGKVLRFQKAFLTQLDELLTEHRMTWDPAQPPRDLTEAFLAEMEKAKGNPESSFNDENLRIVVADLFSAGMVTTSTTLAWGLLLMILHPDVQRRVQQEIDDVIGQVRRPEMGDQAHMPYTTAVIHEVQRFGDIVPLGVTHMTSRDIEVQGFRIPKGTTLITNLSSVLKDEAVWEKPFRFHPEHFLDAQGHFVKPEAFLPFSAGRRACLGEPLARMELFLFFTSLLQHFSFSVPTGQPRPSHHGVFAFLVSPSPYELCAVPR
Sequence of Cytochrome P450 3A4 (P08684 whole entry): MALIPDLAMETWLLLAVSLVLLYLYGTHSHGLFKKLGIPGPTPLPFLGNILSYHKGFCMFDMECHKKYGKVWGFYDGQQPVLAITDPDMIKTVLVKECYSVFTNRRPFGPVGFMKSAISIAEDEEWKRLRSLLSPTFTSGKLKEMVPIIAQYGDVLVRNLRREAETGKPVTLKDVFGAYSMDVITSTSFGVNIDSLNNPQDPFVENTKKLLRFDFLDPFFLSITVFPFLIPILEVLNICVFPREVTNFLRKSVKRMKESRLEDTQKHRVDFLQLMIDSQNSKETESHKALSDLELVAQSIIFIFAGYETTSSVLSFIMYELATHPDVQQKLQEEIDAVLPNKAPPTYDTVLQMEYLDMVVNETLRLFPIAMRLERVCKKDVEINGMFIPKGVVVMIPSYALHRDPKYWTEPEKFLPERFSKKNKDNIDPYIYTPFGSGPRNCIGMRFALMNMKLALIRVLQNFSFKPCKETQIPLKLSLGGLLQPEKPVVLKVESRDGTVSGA

With `O=C(NCN1CCCCC1)c1cnccn1`, the IC50 in assay [1] was > 47.1 µM (inactive). For the same compound, the EC50 in assay [2] is > 53 µM (inactive). `CC1CCC(NC(=O)c2ccc(CS(=O)(=O)Cc3ccccc3F)o2)CC1` (stereo not given): the EC50 in [3] and in [4] was > 112 µM (not active) throughout. Also, the concentration at half-maximal activity (AC50) on Cytochrome P450 1A2 is 0.251 µM (inconclusive); on Cytochrome P450 2C9, 17.8 µM (inconclusive); at Cytochrome P450 2D6, 35.5 µM (inconclusive); on Cytochrome P450 3A4, 14.1 µM (inconclusive). Regarding `N#C/C(=C\c1c[nH]c2ccccc12)c1nnc2n1CCCCC2`, the EC50 in assay [3] and in [4] was > 112 µM (not active) each time.

For the compound `Cc1ccc(Oc2nc3ccccn3c(=O)c2/C=C(\C#N)C(=O)NC2CCS(=O)(=O)C2)c(C)c1` (stereo not given), the values for the EC50 in assay [3] and in assay [4] were > 112 µM (not active) and 6.03 µM (active), respectively.

Turning to `CCC(C)c1ccc(OCCn2ccnc2)cc1` (stereo not given), the IC50 in the assay “cells” is 22.6 µM (active). Same read-out and setting: next, `CCOC(=O)COc1cc([N+](=O)[O-])cc2cccnc12`: 46.4 µM (active). Regarding `N#Cc1ccc(NC(=O)COC(=O)CSc2nnc(-c3ccc(Cl)cc3)o2)cc1`, in assay [1], the IC50 was > 47.1 µM (inactive). Further, the EC50 in assay [2] is > 53 µM (inactive). In the case of `CC(=O)Nc1cccc(NC(=O)CSc2ccc(-c3ccccn3)nn2)c1`, the IC50 in the assay on H9c2 is 24.5 µM (active). With `CCOC(=O)C(CC)n1cnc2c(nnn2-c2ccc(F)cc2)c1=O` (stereo not given), the EC50 in assay [3] and in assay [4] was > 112 µM (not active) each time.

Take `COc1cccc(C(=O)CSc2nnc(-c3cc(OC)c(OC)c(OC)c3)o2)c1`: the IC50 in the assay with H9c2 was > 79 µM (inactive). For the compound `Cc1c(C(=O)NCC2COc3ccccc3O2)oc2ccc(S(=O)(=O)N3CCOCC3)cc12` (stereo not given), in the assay with H9c2, the IC50 was > 79 µM (inactive). With `O=c1oc2ccccc2c2c1nc(C(F)(F)F)n2-c1ccccc1`, the IC50 in the assay “cells” was 11.4 µM (active).

For `CC12CCC(C(=O)NNc3ccccc3)(C(=O)C1=O)C2(C)C` (stereo not given), the EC50 in [3] and in assay [4] was > 112 µM (not active) each time. As to `Cc1ccc(C)c(NC(=O)c2cc(S(=O)(=O)N3CCOCC3)cn2C)c1`, the EC50 in assay [3] and in assay [4] was > 112 µM (not active) each time. For the compound `O=C1NC(c2ccc(Cl)c([N+](=O)[O-])c2)Nc2ccccc21` (stereo not given), in the assay on H9c2, the IC50 is 21.9 µM (active). Consider `Cc1cccc(-n2c(SCC(=O)N3CC(=O)Nc4ccccc43)nc3ccccc3c2=O)c1C`, for which, in assay [1], the IC50 is > 47.1 µM (inactive). The EC50 in assay [2] was > 53 µM (inactive). With `COc1ccc(C(=O)COC(=O)CCNS(=O)(=O)c2ccc(NC(C)=O)cc2)c(OC)c1`, the IC50 in assay [1] is > 47.1 µM (inactive). In addition, the EC50 in assay [2] was > 53 µM (inactive).

In the case of `CCN(CC)C(=O)c1c(C)nc2ccccn12`, the IC50 in [1] is > 47.1 µM (inactive). The EC50 in assay [2] is > 53 µM (inactive). As to `C=CCn1c(SCC(=O)Nc2c(C)cccc2C)nnc1-c1ccncc1`, the IC50 in assay [1] was > 47.1 µM (inactive). Further, the EC50 in assay [2] was > 53 µM (inactive).

`CCCS(=O)(=O)N1CCC(C(=O)NCCCOC(C)C)CC1`: the IC50 in assay [1] was > 47.1 µM (inactive). In addition, the EC50 in [2] is > 53 µM (inactive). On to `CC(C)(O)C#Cc1ccc(C(=O)Nc2ccc3c(c2)OCO3)s1`, for which the IC50 in the assay “cells” was 5 µM (active).

Take `COC(=O)C1=C2SC(C)C(=O)N2C(N)=C(C#N)C1c1ccc(OC)c(OC)c1` (stereo not given): the EC50 in assay [3] and in assay [4] was > 112 µM (not active) each time. In the case of `O=C(Oc1cccc2c(O)nccc12)c1ccccc1`, the IC50 in the assay on H9c2 is > 79 µM (inactive).

Regarding `Cc1ccc(N2CC(C(=O)NCc3nnc(O)c4ccccc34)CC2=O)cc1C` (stereo not given), the IC50 with H9c2 was > 79 µM (inactive). `CN(C(=O)CCS(=O)(=O)c1ccc2c(c1)oc(=O)n2C)C1CCCCC1`: the IC50 in assay [1] was > 47.1 µM (inactive). Also, in assay [2], the EC50 was > 53 µM (inactive). Turning to `O=C(C[C@@H]1C/C=C/CC[C@@H](Cc2ccc(F)cc2)C(=O)O[C@@H](c2ccccc2)CNC1=O)NCCO`, the IC50 in the assay on H9c2 is 11.4 µM (active). For `COc1cccc(COC(=O)CCNC(=O)c2ccc(Cl)cc2)c1OC`, the IC50 in “cells” was 25.5 µM (active). `COc1ccccc1N1CCN(C(=O)C(=O)c2cn(CC(=O)N3CCCC3)c3ccccc23)CC1`: the IC50 in assay [1] is > 47.1 µM (inactive). Also, the EC50 in assay [2] is > 53 µM (inactive).

On to `CC(=O)c1ccc(NC(=O)C(C)OC(=O)c2ccc(Br)o2)cc1` (stereo not given), for which the IC50 in [1] is > 47.1 µM (inactive). For the same compound, the EC50 in [2] is > 53 µM (inactive).

As to `CC(C)(C)OC(=O)N1CCCN(C(=O)Nc2cccc(Cl)c2)CC1`, in assay [1], the IC50 was > 47.1 µM (inactive). In [2], the EC50 was > 53 µM (inactive). For the compound `Cc1ccc(OCC(=O)Nc2ccc([N+](=O)[O-])cn2)cc1C`, the IC50 in assay [1] is > 47.1 µM (inactive). For the same compound, the EC50 in assay [2] is > 53 µM (inactive). With `Cc1ccccc1/N=C/c1cc2c(cc1[N+](=O)[O-])OCO2`, in the assay on H9c2, the IC50 is > 79 µM (inactive). In the case of `CN(C)S(=O)(=O)c1ccc(Cl)c(NC(=O)CNC2(C)CCS(=O)(=O)C2)c1` (stereo not given), the IC50 in assay [1] is > 47.1 µM (inactive). In addition, in assay [2], the EC50 was > 53 µM (inactive). On to `C[C@@H]1CCCCO[C@@H](CN(C)CC2CCCCC2)[C@@H](C)CN([C@@H](C)CO)C(=O)c2cc(NC(=O)Nc3ccc(C(F)(F)F)cc3)ccc2O1`, for which, at Paired box protein Pax-8, the AC50 was 12 µM (active). For the compound `C[C@@H]1CN([C@H](C)CO)C(=O)c2cc(NC(=O)c3ccccc3)ccc2O[C@@H](C)CCCCO[C@H]1CN(C)Cc1ccc(C(F)(F)F)cc1`, the AC50 on Paired box protein Pax-8 is 3.09 µM (active). As to `CSc1nc(/C=C2\C=Nc3ccccc32)c(O)n1C`, in assay [5], the concentration at half-maximal activity (AC50) was 4.03 µM (active). Besides, the EC50 was 5.32 µM (active) in assay [3] and 0.812 µM (active) in assay [4]. The IC50 in assay [6] is 41 µM (active). For `Cn1c(=O)c2c(nc(OCc3ccc(Cl)cc3Cl)n2Cc2ccc(F)cc2)n(C)c1=O`, the EC50 in assay [3] and in assay [4] was > 112 µM (not active) in each case.

The AC50 is the midpoint of the concentration-response curve, whichever way the signal moves.
